Measurements from publication PMC5983823, “Screening of Natural Product Derivatives Identifies Two Structurally Related Flavonoids as Potent Quorum Sensing Inhibitors against Gram-Negative Bacteria” (International Journal of Molecular Sciences, 2018).

Assays:
C. violaceum = test system: C. violaceum; parameters: method as in PMID 27626397; details: cited from earlier work
C. violaceum ATCC 31532 = test: Violacein extraction assay (QS-mediated violacein production); assay type: cell-based; details: Chromobacterium violaceum, ATCC31532, 40 µM, C. violaceum ATCC 31532, mean ± SD of three independent tests; read-out: Inhibition-% of violacein production
P. aeruginosa PAO1 = test: Swimming motility assay; assay type: cell-based; details: Pseudomonas aeruginosa, highest test concentration (400 µM)
Method: Assays were performed according to the protocols previously described in [30, 74] with some modifications. The swarming agar was prepared in MQ-water consisting of 0.3% (w/v) agar, 1% (w/v) peptone, 0.5% (w/v) yeast extract and 0.5% (w/v) sodium chloride, and the swimming agar similarly but without yeast extract. Compounds at a final concentration of 400 µM and 100 µM were pre-mixed with 5 mL of agar, and poured over solidified LB agar plates (10 mL/petri dish) as overlays. The plates were allowed to dry at 30 °C for three hours followed by point inoculation with 2 µL of P. aeruginosa PAO1 (~10^8 CFU/mL) and incubation at 37 °C for 18 h. Quercetin was used as a control. Diameters of the swarming and swimming zones were measured after the incubation periods.

For `CCC(=O)Oc1c(-c2ccccc2Cl)oc2ccccc2c1=O` [Compound 2117, 2-(2-chlorophenyl)-4-oxochromen-3-yl propanoate], the “Anti-QS activity class in earlier screening” value (C. violaceum) is listed as “among the most active compounds”, the inhibition at 40 µM (C. violaceum ATCC 31532) is listed as greater than 90% and the inhibition at 400 µM (P. aeruginosa PAO1) is listed as 28.1%.
In the case of `CCCCCCCCCC(=O)Oc1c(-c2ccc(OC)cc2)oc2ccccc2c1=O` [Compound 2896, 2-(4-methoxyphenyl)-4-oxochromen-3-yl decanoate], the inhibition at 40 µM (C. violaceum ATCC 31532) is reported as 83.5 ± 1.4% and the inhibition at 400 µM (P. aeruginosa PAO1) is reported as 33.9%.
